One block for each compound: values may come before it.
Assays:
Format in all cases: physicochemical
[1] = Solubility of ivermectin (CBT-273) in exemplary formulations
[2] = Solubility of Acoltremon (AR-15512) in exemplary formulations
Description: (§1) Time (min) % Mobile Phase A % Mobile Phase B

[3] = Solubility of lifitegrast in exemplary formulations
Experimental: Chromatographic column: Agilent ZORBAX SB-C18, 4.6*250 mm, 5 μm Mobile phase A: 0.1% Phosphoric Acid-H2O Mobile phase B: Acetonitrile Flow rate: 1.0 mL/min Wavelength: UV/220 nm Injection volume: 10 μL Column temperature: 35° C.
Since the auxiliary peaks of MCM and MC8-2 overlapped with the main peaks in the above gradient method, the analytical methods for MCM and MC8-2 were adjusted as follows: Chromatographic column: Agilent ZORBAX SB-C18, 4.6*250 mm, 5 μm Mobile phase A: 0.1% Phosphoric Acid-H2O Mobile phase B: Acetonitrile Flow rate: 1.0 mL/min Wavelength: UV/220 nm Injection volume: 10 μL Column temperature: 35° C.

[4] = Solubility of axitinib in exemplary formulations
Experimental: Mobile phase A: 0.05% TFA-H2O
Mobile phase B: 0.05% TFA-Acetonitrile
Flow rate: 1.0 mL/min Wavelength: 362 nm
Injection volume: 30 μL Column temperature: 40° C.

[5] = Solubility of lotilaner in exemplary formulations
Description: as §1

[6] = Solubility of aceclidine in F6H8, MCT and 10% MCT in F6H8 by GC; settings: GC method
Experimental: 5 mg aceclidine was added into a PP tube, 1 ml of F6H8 was added, the PP tube was shaken for about 5 minutes and aceclidine was completely dissolved in the solution. Further 18 mg aceclidine was added, and shaking was continued until no insoluble substance was found. […] The phenomenon disappeared after re-shaking.
The above formulations were centrifuged and the supernatants filtered through 0.45 micron filters without further dilution. One sample was prepared from each solvent for GC analysis.
The GC protocols and parameters are listed below:
Injection Volume: 0.5 ul (Direct injection)
Detector Temp (FID): 300° C.
Gradient: 70° C. (hold 2 min)→12° C./min→280° C. (hold 7 min)
20 mg aceclidine was added into a PP tube, and 1 ml MCT was added. The PP tube was shaken for about 5 minutes and the resulting solution became clear. Further 40 mg of aceclidine was added. The PP tube was shaken again. […] The phenomenon disappeared after re-shaking. A small sample was taken and solubility was determined according to the GC method described in Example 17.
Sample preparation was prepared and analyzed based on the protocols described in Examples 17 and 18.

[7] = Solubility of aceclidine in exemplary formulations; settings: for Aceclidine solubility: Unsaturated
Experimental: An appropriate amount of aceclidine was dissolved in various MCT (to obtain a mixed solution), then SFA (F6H8 or F4H5) was added to the solution in the indicated proportions and the solution was mixed well with magnetic stirring.

[8] = Stability of aceclidine in F6H8; settings: dissolved in F6H8, 25° C., 1, 3, 6, 9 and 12 months
Experimental: Aceclidine is dissolved in F6H8 as described in Example 17. The level of aceclidine is measured by the GC method at 25° C. at 1, 3, 6, 9 and 12 months. The aceclidine in the formulation is defined as stable if the level is maintained between 90-110% of the original level.

Compound: ivermectin [Ivermectin (CBT-273)]
Ivermectin (CBT-273) Saturated solubility ([1]; 10% Captex 300/90% F6H8, RT): 1.35 mg/g
Ivermectin (CBT-273) Saturated solubility ([1]; 10% Captex 355/90% F4H5, RT): 0.61 mg/g
Ivermectin (CBT-273) Saturated solubility ([1]; 10% Captex 355/90% F6H8, RT): 0.46 mg/g
Ivermectin (CBT-273) Saturated solubility ([1]; 10% Captex 8000/90% F6H8, RT): 1.36 mg/g
Ivermectin (CBT-273) Saturated solubility ([1]; 20% Captex 355/80% F4H5, RT): 3.03 mg/g
Ivermectin (CBT-273) Saturated solubility ([1]; 20% Captex 355/80% F6H8, RT): 3.87 mg/g
Ivermectin (CBT-273) Saturated solubility ([1]; 100% Captex 355, RT): 26.51 mg/g
Ivermectin (CBT-273) Saturated solubility ([1]; 100% Captex 8000, RT): 34.62 mg/g
Ivermectin (CBT-273) Saturated solubility ([1]; 100% Captex ® 300, RT): 27.91 mg/g
Ivermectin (CBT-273) Saturated solubility ([1]; 100% F4H5, RT): 0.12 mg/g
Ivermectin (CBT-273) Saturated solubility ([1]; 100% F6H8, RT): 0.04 mg/g

Acoltremon (AR-15512) Saturated solubility ([2]; 10% Captex 170/90% F4H5, RT): 0.21 mg/g
Acoltremon (AR-15512) Saturated solubility ([2]; 10% Captex 200P / 90% F4H5, RT): 0.36 mg/g
Acoltremon (AR-15512) Saturated solubility ([2]; 10% Captex 200P/90% F6H8, RT): 0.36 mg/g
Acoltremon (AR-15512) Saturated solubility ([2]; 10% Captex 355/90% F6H8, RT): 0.7 mg/g
Acoltremon (AR-15512) Saturated solubility ([2]; 10% MCT/90% F4H5, RT): 0.28 mg/g
Acoltremon (AR-15512) Saturated solubility ([2]; 10% MCT/90% F6H8, RT): 0.29 mg/g
Acoltremon (AR-15512) Saturated solubility ([2]; 20% Captex 170/80% F4H5, RT): 0.42 mg/g
Acoltremon (AR-15512) Saturated solubility ([2]; 20% Captex 170/80% F6H8, RT): 0.43 mg/g
Acoltremon (AR-15512) Saturated solubility ([2]; 20% Captex 200P / 80% F4H5, RT): 0.66 mg/g
Acoltremon (AR-15512) Saturated solubility ([2]; 20% Captex 200P / 80% F6H8, RT): 0.53 mg/g
Acoltremon (AR-15512) Saturated solubility ([2]; 20% MCT/80% F4H5, RT): 0.55 mg/g
Acoltremon (AR-15512) Saturated solubility ([2]; 20% MCT/80% F6H8, RT): 0.55 mg/g
Acoltremon (AR-15512) Saturated solubility ([2]; 100% Captex 170, RT): 2.03 mg/g
Acoltremon (AR-15512) Saturated solubility ([2]; 100% Captex 200P, RT): 3.21 mg/g
Acoltremon (AR-15512) Saturated solubility ([2]; 100% Captex 8000, RT): 1.84 mg/g
Acoltremon (AR-15512) Saturated solubility ([2]; 100% F4H5, RT): 0.064 mg/g
Acoltremon (AR-15512) Saturated solubility ([2]; 100% F6H8, RT): 0.055 mg/g
Acoltremon (AR-15512) Saturated solubility ([2]; 100% MCT, RT): 3.12 mg/g
Compound: COc1ccc(NC(=O)[C@@H]2C[C@H](C)CC[C@H]2C(C)C)cc1 [Acoltremon (AR-15512), (1R,2S,5R)—N-(4-methoxyphenyl)-5-methyl-2-(1-methylethyl) cyclohexanecarboxamide]

Lifitegrast Saturated solubility ([3]; 10% MCT/90% F6H8, RT): 0 mg/g
Lifitegrast Saturated solubility ([3]; 20% MCT/80% F6H8, RT): 0 mg/g
Lifitegrast Saturated solubility ([3]; 50% MCT/50% F6H8, RT): 0.004 mg/g
Lifitegrast Saturated solubility ([3]; 100% Captex 300, RT): 0.28 mg/g
Lifitegrast Saturated solubility ([3]; 100% Captex 355, RT): 0.27 mg/g
Lifitegrast Saturated solubility ([3]; 100% Captex 8000, RT): 0.56 mg/g
Compound: CS(=O)(=O)c1cccc(C[C@H](NC(=O)c2c(Cl)cc3c(c2Cl)CCN(C(=O)c2ccc4ccoc4c2)C3)C(=O)O)c1 [Lifitegrast, lifitegrast]

Axitinib Saturated solubility ([4]; 100% Captex 300, RT): 0.022 mg/g
Axitinib Saturated solubility ([4]; 100% Captex 355, RT): 0.03 mg/g
Axitinib Saturated solubility ([4]; 100% Captex 8000, RT): 0.1 mg/g
Compound: CNC(=O)c1ccccc1Sc1ccc2c(/C=C/c3ccccn3)n[nH]c2c1 [Axitinib]

Lotilaner solubility ([5]; 10% Captex 300/90% F6H8, RT): 1.21 mg/g
Lotilaner solubility ([5]; 10% Captex 8000/90% F6H8, RT): 3.47 mg/g
Lotilaner solubility ([5]; 10% MCT/90% F6H8, RT): 2.7 mg/g
Lotilaner solubility ([5]; 20% MCT/80% F6H8, RT): 5.42 mg/g
Lotilaner solubility ([5]; 100% Captex 300 (Unsaturated), RT): > 11.32 mg/g
Lotilaner solubility ([5]; 100% Captex 8000 (Unsaturated), RT): > 29.04 mg/g
Lotilaner solubility ([5]; 100% MCT (Unsaturated), RT): > 25.47 mg/g
Compound: Cc1cc(C2=NO[C@@](c3cc(Cl)c(Cl)c(Cl)c3)(C(F)(F)F)C2)sc1C(=O)NCC(=O)NCC(F)(F)F [Lotilaner, lotilaner]

Compound: CC(=O)OC1CN2CCC1CC2 (stereo not shown) [Aceclidine, aceclidine]
solubility of aceclidine in 10% MCT in F6H8 [6]: around 2 % (w/v)
solubility of aceclidine in F6H8 [6]: around 1.5 % (w/v)
solubility of aceclidine in MCT [6]: around 5 % (w/v)
aceclidine concentration that is stable and uniform ([7]; 10% Captex 355/F6H8, RT): 1.5%-2% is stable
Aceclidine solubility ([7]; 10% Captex 355/F6H8, RT): > 21.4(Unsaturated), mg/g
aceclidine concentration that is stable and uniform ([7]; 10% Captex 8000/F6H8, RT): 2% is stable and
Aceclidine solubility ([7]; 10% Captex 8000/F6H8, RT): > 17.0(Unsaturated), mg/g
Aceclidine solubility ([7]; 10% MCT/90% F6H8, RT): > 17.0(Unsaturated) mg/g
Aceclidine solubility ([7]; 100% Captex 300, RT): > 66.7(Unsaturated) mg/g
Aceclidine solubility ([7]; 100% Captex 355, RT): > 203.4(Unsaturated) mg/g
Aceclidine solubility ([7]; 100% Captex 8000, RT): > 164.0(Unsaturated) mg/g
Aceclidine solubility ([7]; 100% MCT, RT): > 320.9(Unsaturated) mg/g
stability (level maintained between 90-110% of the original level) [8]: remains stable
